Key:
RAW 264.7 macrophages = experiment: MTT assay for cell viability / cytotoxicity; format: cell-based; details: means ± SD of three independent experiments
Description: In addition to NO inhibition, the cytotoxic activity of compounds 1a–i, 2a–i, 3a–h, and 4a–h in RAW 264.7 macrophages were measured using the 3-(4,5-dimethylthiazol-2-yl)-2,5-diphenyltetrazolium bromide (MTT) assay to check whether the effects on the production of NO was caused by nonspecific cytotoxicity.
(§1) Cell culture and sample treatment were performed as reported in the literature. The 3-(4,5-dimethylthiazol-2-yl)-2,5-diphenyltetrazolium bromide (MTT) assay for cell viability followed the procedure previously described in the literature. Nitrite determination was carried as described in the literature, and the PGE2 assay was carried as previously described.

[1] = system: LPS-induced RAW 264.7 macrophages; experiment: Nitric oxide (NO) production inhibition in LPS-induced RAW 264.7 macrophages (nitrite determination); format: cell-based; details: for Nitric Oxide % Inhibition: LPS-induced RAW 264.7 macrophages
Description: The ability of a certain molecule to inhibit the production of inflammatory mediator(s) is one of successful approach to treatment both chronic and acute inflammation.
as §1

## COc1cccc(-c2nn(-c3ccccc3)cc2-c2ccnc(NCCNS(=O)(=O)c3ccc(C)cc3)c2)c1 [Compound 1f, N-(2-((4-(3-(3-Methoxyphenyl)-1-phenyl-1H-pyrazol-4-yl)pyridin-2-yl)amino)ethyl)-4-methyl benzenesulfonamide]
RAW 264.7 macrophages
  IC50: 291 ± 1.12 µM
[1]; 1 µM
  Nitric Oxide % Inhibition: 16.29 ± 0.10%
[1]; 5 µM
  Nitric Oxide % Inhibition: 26.54 ± 0.65%
[1]; 10 µM
  Nitric Oxide % Inhibition: 53.09 ± 2.10%
[1]; nitric oxide production, means ± SD of three independent experiments, read-out: NO (IC50)
  IC50: 9.42 ± 0.12 µM
